Measurements: patent US8577624B2, “Crystal structure of a plasma membrane proton pump” (Aarhus Universitet, priority 2007, dated 2013)

Assays:
[1] = target: T1, plasma membrane H+-ATPase (Arabidopsis thaliana, UniProt P19456); test: Inhibition of H+ ATPase ATP hydrolytic activity by platin and holmium ions (Pi production); format: biochemical; settings: 20 mM Mops pH 6.5, 50 mM KCl, 8 mM MgCl2, 3 mM ATP; various concentrations; FIG. 12; numbers only in figure
T1 sequence (P19456 1-948): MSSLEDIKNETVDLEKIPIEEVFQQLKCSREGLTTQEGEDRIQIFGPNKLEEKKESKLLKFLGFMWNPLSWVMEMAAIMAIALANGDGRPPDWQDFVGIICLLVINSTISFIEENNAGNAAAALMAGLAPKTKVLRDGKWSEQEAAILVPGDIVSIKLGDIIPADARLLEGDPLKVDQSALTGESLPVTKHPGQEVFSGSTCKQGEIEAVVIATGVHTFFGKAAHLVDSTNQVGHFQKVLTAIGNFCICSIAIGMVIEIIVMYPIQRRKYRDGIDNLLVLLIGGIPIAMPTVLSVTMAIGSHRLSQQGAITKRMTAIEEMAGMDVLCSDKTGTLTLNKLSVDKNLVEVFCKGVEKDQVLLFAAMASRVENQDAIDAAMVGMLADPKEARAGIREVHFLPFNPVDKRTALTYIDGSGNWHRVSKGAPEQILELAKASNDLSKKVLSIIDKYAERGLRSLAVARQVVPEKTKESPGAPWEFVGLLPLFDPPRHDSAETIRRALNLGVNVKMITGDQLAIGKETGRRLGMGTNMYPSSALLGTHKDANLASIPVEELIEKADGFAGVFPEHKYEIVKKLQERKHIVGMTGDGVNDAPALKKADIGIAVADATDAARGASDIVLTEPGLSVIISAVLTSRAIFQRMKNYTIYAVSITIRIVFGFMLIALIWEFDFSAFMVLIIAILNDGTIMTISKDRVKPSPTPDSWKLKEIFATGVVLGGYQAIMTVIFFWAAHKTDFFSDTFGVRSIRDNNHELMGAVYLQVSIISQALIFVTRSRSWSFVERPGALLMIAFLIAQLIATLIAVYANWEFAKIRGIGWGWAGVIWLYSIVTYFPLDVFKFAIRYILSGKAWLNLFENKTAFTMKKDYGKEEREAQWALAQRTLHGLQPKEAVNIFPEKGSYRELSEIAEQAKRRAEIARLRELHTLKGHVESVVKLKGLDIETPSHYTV
Experimental: (§1) Assay conditions are 20 mM Mops, pH: 6.5, 50 mM KCl, 8 mM MgCl2 and 3 mM ATP. Production of Pi was measured by standard […] tests. The results are shown in FIG. 12A and the activity is given as the percentage of the ATP hydrolytic activity in the absence of various concentrations of Pt (±StDev).
as §1, with “12B” for “12A”, “Ho” for “Pt”

[2] = test system: plasma membrane H+-ATPases; settings: vanadate in its plus 5 valence state; cited from earlier work
[3] = target: Sarcoplasmic Endoplasmic Reticulum Ca2+-ATPase (SERCA); settings: blocking SERCA; cited from earlier work

[Ho+3] [Ho]
ATP hydrolytic activity of plasma membrane H+-ATPase [1]: inhibits

[O]=[V]([O-])([O-])[O-] [Vanadate]
concentration at which the pumps are inhibited [2]: μM range

C/C=C(/C)C(=O)O[C@H]1C(C)=C2[C@H]([C@@H]1OC(=O)CCCCCCC)[C@@](C)(OC(C)=O)C[C@H](OC(=O)CCC)[C@@]1(O)[C@H]2OC(=O)[C@@]1(C)O [thapsigargin]
Kd [3]: sub-nanomolar range
